{"source": "a melting point compilation (Tetko et al.; mined from patent text by program, amines drawn as free bases though some values may be those of a salt)", "data": [{"units": {"melting point": "°C"}, "values": [{"smiles": "O=P(O)(O)C(F)(F)c1ccc(CN(Cc2ccc(C(F)(F)P(=O)(O)O)cc2)S(=O)(=O)CCc2ccccc2)cc1", "melting point": "181 to 183"}, {"smiles": "CNC(=O)c1cccc(F)c1Nc1nc(Nc2ccc3c(c2)N(CCOC)C(=O)CCC3)ncc1Cl", "melting point": "199 to 204"}, {"smiles": "COC(=O)Nc1nc(C(=O)C(=O)OC)ns1", "melting point": "112 to 117"}, {"smiles": "CC(C)(C)C(=O)Nc1c(F)cc(F)cc1Oc1ccc(C2CC(=O)NC(=O)C2)cc1", "melting point": 172}, {"smiles": "CCOC(=O)C(O)C(Oc1ccccc1[N+](=O)[O-])c1ccccc1", "note": "(stereo not drawn)", "melting point": "129 to 131"}, {"smiles": "OC(CNCCNc1cccc2cn[nH]c12)COc1ccccc1", "note": "(stereo not drawn)", "melting point": "117 to 119"}, {"smiles": "O=C1CNN(Cc2cccc(C(F)(F)F)c2)C(=O)N1", "melting point": 152}, {"smiles": "CN(Cc1cccc2c1CN(C1CCC(=O)NC1=O)C2=O)C(=O)CCNC(=O)OC(C)(C)C", "note": "(stereo not drawn)", "melting point": "222 to 224"}, {"smiles": "O=C(O)C(=O)CC(=O)c1cccn1CCCCc1ccccc1", "melting point": "119 to 121"}, {"smiles": "Clc1cc2c(nn1)CCCCC2", "melting point": "74 to 75"}, {"smiles": "CCCCCc1nc2cc(Cl)c(S(N)(=O)=O)cc2[nH]1", "melting point": "183 to 185"}, {"smiles": "COc1cc(C(=O)NC=NC(=O)ON(c2ccc(C)c(NC(=O)c3ccc(OCc4ccccc4)cc3)c2)C(C)(C)C)cc(OC)c1OC", "melting point": 94}, {"smiles": "CC(CCN)P(C)(=O)O", "note": "(stereo not drawn)", "melting point": "68 to 75"}, {"smiles": "COc1cc(OC)nc(N=C=S)n1", "melting point": "85 to 86"}, {"smiles": "CC(C)CCCC(NC(=O)OC(C)(C)C)c1nc(-c2cccc(Br)c2)c[nH]1", "note": "(stereo not drawn)", "melting point": "134 to 136"}, {"smiles": "CN1CN(C(=O)c2c(F)cccc2F)C(=O)N(c2ccc(S(=O)C(F)F)cc2F)C1", "note": "(stereo not drawn)", "melting point": "50 to 55"}, {"smiles": "N#C/C=C/C1CN(C(c2ccccc2)c2ccccc2)C1", "melting point": "108 to 110"}, {"smiles": "CCOC(=O)c1ncc2[nH]c3c([N+](=O)[O-])cc([N+](=O)[O-])cc3c2n1", "melting point": "295 to 299"}, {"smiles": "COC(=O)c1cccc(/C=C/c2cccc(OC)c2)c1", "melting point": "92 to 94"}, {"smiles": "O=C(O)c1ccc(CCCC2SCC(=O)N2CCC2(O)CCCC2)cc1", "note": "(stereo not drawn)", "melting point": "149 to 150"}, {"smiles": "CCOC(=O)CCCCSc1nnc(S)s1", "melting point": 53}, {"smiles": "CCNc1nc(S(C)=O)ncc1C(=O)OCC", "note": "(stereo not drawn)", "melting point": "54 to 56"}, {"smiles": "COc1nc(N)nc(-c2ccc(S(C)=O)cc2)c1-c1ccc(=O)n(C(C)C)n1", "note": "(stereo not drawn)", "melting point": "127 to 130"}, {"smiles": "CC(C)c1csc(NC(=O)OC(C)(C)C)c1C(=O)O", "melting point": "205 to 206"}, {"smiles": "CCCCCCCCCCNC(=O)c1cccc([N+](=O)[O-])c1", "melting point": "86 to 88"}, {"smiles": "O=C(CCc1ccccc1Cl)Nc1c(Cl)ccc2nc(N3CC[C@H](NCCO)C3)ccc12", "melting point": "180 to 182"}, {"smiles": "Cc1cccc(Br)c1C(=O)N[C@@H](Cc1ccc(-c2c(C)n(C)c(=O)n(C)c2=O)cc1)C(=O)O", "melting point": "240 to 242"}, {"smiles": "Cn1ncc(/C=C/C(=O)Nc2ccc(CCc3nnco3)cc2)c1-c1ccc(F)cc1", "melting point": "177 to 178"}, {"smiles": "CC(=O)Nc1ccc(CN2C(=O)[C@H]3CCC[C@H]3N(C(=O)CN3C(=O)c4ccccc4C3=O)c3ccccc32)cc1", "note": "(relative stereo)", "melting point": "303 to 306"}, {"smiles": "Cn1ncnc1COc1nn2c(-c3cc(F)ccc3F)nncc2c1-c1ccccc1", "melting point": 199}, {"smiles": "NC1CCN(CC23CC(c4ccccc42)c2ccccc23)CC1", "melting point": "116 to 119"}, {"smiles": "CC(C)Oc1ccc(CCCCOc2cc(CCC(=O)O)n(C(C)C)n2)c(Oc2ncc(C(F)(F)F)cc2Cl)c1", "melting point": "99.5 to 100"}, {"smiles": "CC(C)C[C@H](NC(=O)[C@H](CC(C)C)N[C@H](CC(C)C)C(=O)OCc1ccccc1)C(=O)N[C@@H](C)C(N)=O", "melting point": "133 to 134"}, {"smiles": "COc1cccc2c1nc(C)n2C", "melting point": "122 to 124"}, {"smiles": "CCCC(C(=O)N(C)C)n1cc(C)c(-c2ccco2)n1", "note": "(stereo not drawn)", "melting point": "107 to 109"}, {"smiles": "Nc1c(Cl)cc(C(=O)Cl)cc1C(F)(F)F", "melting point": "110 to 115"}, {"smiles": "CCCc1nc(C)cn1-c1nc(OC)ccc1N", "melting point": "124 to 128"}, {"smiles": "O=C(C1=COCCOCCOCCOCCOCCO1)c1cccnc1", "melting point": "98 to 100"}, {"smiles": "CCCc1c(S(=O)(=O)CCCOc2ccc(C(C)=O)c(OCCCC(=O)OCC)c2CCC)ccc(C(C)=O)c1O", "melting point": "77 to 79"}, {"smiles": "Cc1nnc(-c2cc(NCc3c(C)cccc3C)c3nc(C)n(C)c3c2)o1", "melting point": "256 to 257"}, {"smiles": "CC(=O)OC1CSC(Oc2ccnc(-c3ccncc3)c2)C(OC(C)=O)C1OC(C)=O", "note": "(stereo not drawn)", "melting point": 185}, {"smiles": "CC(C)Oc1ccccc1C(=O)NC(=O)NC1CN2CCC1CC2", "note": "(stereo not drawn)", "melting point": "171 to 175"}, {"smiles": "CC(=O)NC[C@H]1CN(c2ccc(C3CCN(C(=O)c4cc5ccccc5[nH]4)CC3)c(F)c2)C(=O)O1", "melting point": "223 to 225"}, {"smiles": "NS(=O)(=O)c1ccc(-c2ccco2)cc1", "melting point": "202 to 203"}, {"smiles": "CO[C@@H](Cc1ccc(OCCc2nc(-c3ccc(C(F)(F)F)cc3)oc2C)c2ccsc12)C(=O)O", "melting point": "173 to 175"}, {"smiles": "O=C1CCN(c2cc3c(cc2-c2ccccc2F)NC(=O)CC(c2cccc(-n4ccnc4)c2)=N3)CC1", "melting point": 230}, {"smiles": "COC(=O)c1cccc(C(=O)CC(=O)c2ccccc2)c1", "melting point": "106 to 108"}, {"smiles": "O=C1CCc2ccc(O)c(c2)Oc2ccc(cc2)C2OC2CO1", "note": "(stereo not drawn)", "melting point": "180 to 181"}, {"smiles": "COc1cc(OC)n2nc(N)nc2n1", "melting point": "215 to 220"}, {"smiles": "CCCCC1=Nc2ccccc2C(=O)C1", "melting point": 140}, {"smiles": "NC(=O)NN=Cc1ccc(Oc2cccnc2)cc1", "melting point": "160 to 162"}, {"smiles": "NNc1cnc(-c2ccccc2)cn1", "melting point": "98 to 99"}, {"smiles": "Fc1ccc(Nc2ncnc3cc(-c4ccoc4)ccc23)cc1Cl", "melting point": "249 to 250"}, {"smiles": "CCc1nc2cc(S(C)(=O)=O)c(Cl)cc2n1-c1ccc(CCOC(=O)NS(=O)(=O)c2ccc(C)cc2)cc1", "melting point": "105 to 110"}, {"smiles": "O=C1Nc2cc(-c3ccco3)ccc2C2CCCC12F", "note": "(stereo not drawn)", "melting point": "203 to 206"}, {"smiles": "COCc1cccc2c1ccn2S(=O)(=O)c1ccc(C)cc1", "melting point": "85.5 to 89"}, {"smiles": "COc1cc2c(Nc3cccc(N(C)C)c3)c(C#N)cnc2c(OC)c1OC", "melting point": "142 to 144"}, {"smiles": "FC1(F)N=c2cc3c(cc2=N1)OC(Br)O3", "melting point": "160 to 164"}, {"smiles": "COc1cc2ccc(C(=N)NO)cc2cc1OC", "melting point": "203 to 208"}, {"smiles": "CCC(O)(c1ccc(OCCN(C)C)cc1)c1cccc(Cl)c1", "note": "(stereo not drawn)", "melting point": "108 to 109"}, {"smiles": "Cc1cc(OCc2nc3ccccc3s2)ccc1N", "melting point": "110 to 111"}, {"smiles": "COc1ccc(F)cc1C(=O)NC1Cc2cc(S(=O)(=O)NC(=S)NC(C)C)c(OC)cc2OC1(C)C", "note": "(stereo not drawn)", "melting point": "156 to 157"}, {"smiles": "CNC(=O)COc1cccc2c1S(=O)(=O)N=C2C1=C(O)C(C(C)(C)C)N(Cc2ccc(F)cc2)C1=O", "note": "(stereo not drawn)", "melting point": "> 225"}, {"smiles": "COC(=O)c1cc(N(C)C)c(N2CCCCC2)c(N(C)C)c1", "melting point": "103 to 105"}, {"smiles": "COc1cc(C)c(C(=O)c2c(C)c(C)cc(C)c2C)c(OC)c1OC", "melting point": 143}, {"smiles": "CCN(CC)c1cccc2nc3n(c12)CC(OC)CCN3c1ccc(Cl)cc1Cl", "note": "(stereo not drawn)", "melting point": "120 to 122"}, {"smiles": "CCN1C(=O)CCCc2cc(Nc3ncc(Cl)c(Nc4cc(Cl)ccc4OC)n3)c(OC)cc21", "melting point": "194 to 196"}, {"smiles": "CC(=O)Nc1ccccc1C#Cc1c(F)c(F)nc(F)c1F", "melting point": "204 to 205"}, {"smiles": "COc1ccc(C(N)=O)c(OC)c1-c1ccc(C[C@H](NC(=O)c2c(Cl)cccc2Cl)C(=O)O)cc1", "melting point": "227 to 228"}, {"smiles": "Cc1cccc(NC(=O)NCC(=O)N(CC(=O)OCc2ccccc2)c2ccccc2)c1", "melting point": 140}, {"smiles": "CS(=O)(=O)c1c(C(=O)O)ccc(F)c1F", "melting point": 194}, {"smiles": "COc1cn(-c2cc(-n3cccn3)ccc2F)nc(-c2ccnn2-c2ccccc2)c1=O", "melting point": "186 to 187"}, {"smiles": "CCC1c2cccn2-c2ccc(Br)cc2N1S(=O)(=O)c1ccc(O)cc1", "note": "(stereo not drawn)", "melting point": "206 to 208"}, {"smiles": "c1ccc2c(N3CCCCC3)nc(N3CCCCC3)nc2c1", "melting point": "128 to 131"}, {"smiles": "CN1Cc2ccccc2C(OCC(O)Cn2ccnc2)c2c1nc1ccc(Br)cc1c2Cl", "note": "(stereo not drawn)", "melting point": "175 to 177"}, {"smiles": "O=C(Nc1ccccc1S(=O)(=O)c1ccccc1)N[C@@H](Cc1ccc(NC(=O)c2ccc(Cl)nc2Cl)cc1)C(=O)O", "melting point": 207}, {"smiles": "CC(=O)n1c(-c2ccc(C#N)cc2)cc2ccccc21", "melting point": "158 to 160"}, {"smiles": "Cc1cc2cnnc(Cl)c2n1CC(C)C", "melting point": "96 to 99"}, {"smiles": "Cc1ccc(C(Cl)=NOS(C)(=O)=O)cc1", "melting point": "100 to 102"}, {"smiles": "CCN(CC)C(=O)c1cc(C(C)(C)C)c(OC(=O)c2cc(C(C)(C)C)c(O)c(C(C)(C)C)c2)c(C(C)(C)C)c1", "melting point": "203 to 205"}, {"smiles": "CCCCc1ncc(/C=C2/C(=O)NC(=O)N2C)n1Cc1ccc(C(=O)O)cc1", "melting point": "248 to 250"}, {"smiles": "N#CCCNC(=O)c1cccc(-c2ccc3c(c2)N(c2ccc(Cl)cc2Cl)CCCC3)c1", "melting point": "139 to 142"}, {"smiles": "O=C(Nc1cc([N+](=O)[O-])c[nH]c1=O)c1ccccc1", "melting point": "267 to 268"}, {"smiles": "N#Cc1c(Cl)sc2[nH]c(=O)c(=O)[nH]c12", "melting point": "> 250"}, {"smiles": "COC(=O)C1=CCC2=Nc3ccccc3C2=C1C(=O)OC", "melting point": 219}, {"smiles": "CCCc1c(OCCCCCCc2ccc(C(C)C)c(OC)c2OC)ccc(C(=O)O)c1O", "melting point": "106 to 108"}, {"smiles": "COC(=O)CCCC#Cc1cc(Cl)ccc1NS(=O)(=O)c1cn(C)cn1", "melting point": "76 to 79"}, {"smiles": "COc1ccc(NC(=O)NCc2ccc3c(c2)CN(C2CCC(=O)NC2=O)C3=O)cc1OC", "note": "(stereo not drawn)", "melting point": "216 to 218"}, {"smiles": "CCCCCC1CN(C(=O)c2cc(OC)c(OC)c(OC)c2)CCN1C(=O)c1cc(OC)c(OC)c(OC)c1", "note": "(stereo not drawn)", "melting point": "139 to 140"}, {"smiles": "Cc1ncc(CN2C(=O)c3ccccc3C2=O)n1-c1ccc(Cl)cc1C(=O)c1ccccc1F", "melting point": "192 to 196"}, {"smiles": "CNC(=O)Nc1cccc(OC(=O)N(CCC#N)c2ccccc2)c1", "melting point": 147}, {"smiles": "CC(C)(C)OC(=O)c1ccc(NC2CCc3cc4nc(COCc5ccccc5)[nH]c(=O)c4cc32)cc1", "note": "(racemic)", "melting point": "194 to 195"}, {"smiles": "Cc1ccc(-c2nc(CCl)co2)s1", "melting point": "84 to 85"}, {"smiles": "O=C(Cl)c1ccc(Cl)c(S(=O)(=O)NC2CCCCC2)c1", "melting point": 119}, {"smiles": "CC(C)(C)c1ccccc1N1CCN(C(=O)CC#N)CC1", "melting point": "163 to 164"}, {"smiles": "C1=C[C@H]2CCN(CC3CC3)C[C@@H]2Cc2ccccc21", "note": "(relative stereo)", "melting point": "157 to 159"}, {"smiles": "Nc1cc2c(Nc3ccc(F)c(Cl)c3)ncnc2cc1OCC1CCOCC1", "melting point": 221}, {"smiles": "COc1cc(C(=O)NS(=O)(=O)c2ccccc2C)ccc1Cc1cn(CC(=O)N(C)C)c2ccc(NC(=O)CC3CCCC3)cc12", "melting point": "215 to 218"}]}]}
